The supplement of paper PMC11061612

What was measured:
[1] = system: RKN (Other Solid Carcinomas); experiment: Bliss excess, mean over the matrix (fraction); higher = more synergy
Procedure, shortened: (§1)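 Bliss excess equals the observed combination effect minus the expected value EA + EB − EA·EB, where EA and EB are the effects of each agent alone. Combination Emax is the second-highest inhibition within the matrix. Inhibition was scaled from CellTiter-Glo 2.0 luminescence, with 0 set by vehicle wells and 1 by blank wells, after 72 hours of two-drug dosing of cells plated in 1536-well plates.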

[2] = system: PANC-03-27 (Pancreatic Carcinoma); experiment: as above
Procedure, shortened: as §1

[3] = system: SF539 (Glioblastoma); experiment: as above
Procedure, shortened: as §1

[4] = system: WM278 (Melanoma); experiment: combination Emax (second highest fraction inhibited in the dose matrix, 72 h); higher = more inhibition; extreme values may be limits of the assay
Procedure, shortened: as §1

[5] = system: OVMIU (Ovarian Carcinoma); experiment: as above
Procedure, shortened: as §1

[6] = system: RKN (Other Solid Carcinomas); experiment: as above
Procedure, shortened: as §1

[7] = system: COLO-680N (Esophageal Squamous Cell Carcinoma); experiment: as above
Procedure, shortened: as §1

[8] = system: CAL-62 (Thyroid Gland Carcinoma); experiment: as above
Procedure, shortened: as §1

[9] = system: WM793B (Melanoma); experiment: as above
Procedure, shortened: as §1

[10] = system: MKN45 (Gastric Carcinoma); experiment: as above
Procedure, shortened: as §1

[11] = system: MFE-280 (Endometrial Carcinoma); experiment: as above
Procedure, shortened: as §1

[12] = system: RERF-LC-Sq1 (Squamous Cell Lung Carcinoma); experiment: as above
Procedure, shortened: as §1

[13] = system: 23132-87 (Gastric Carcinoma); experiment: as above
Procedure, shortened: as §1

[14] = system: SU-DHL-10 (B-Cell Non-Hodgkin's Lymphoma); experiment: as above
Procedure, shortened: as §1

[15] = system: CAL-120 (Breast Carcinoma); experiment: as above
Procedure, shortened: as §1

[16] = system: TE-8 (Esophageal Squamous Cell Carcinoma); experiment: as above
Procedure, shortened: as §1

[17] = system: A2058 (Melanoma); experiment: as above
Procedure, shortened: as §1

[18] = system: SHP-77 (Small Cell Lung Carcinoma); experiment: as above
Procedure, shortened: as §1

[19] = system: IST-MES1 (Mesothelioma); experiment: as above
Procedure, shortened: as §1

[20] = system: REH (B-Lymphoblastic Leukemia); experiment: as above
Procedure, shortened: as §1

Row | Structure (SMILES) | Bliss excess [1] | Bliss excess [2] | Bliss excess [3] | combination Emax [4] | combination Emax [5] | combination Emax [6] | combination Emax [7] | combination Emax [8] | combination Emax [9] | combination Emax [10] | combination Emax [11] | combination Emax [12] | combination Emax [13] | combination Emax [14] | combination Emax [15] | combination Emax [16] | combination Emax [17] | combination Emax [18] | combination Emax [19] | combination Emax [20]
1 | CC1(C)CCC(CN2CCN(c3ccc(C(=O)NS(=O)(=O)c4ccc(NCC5CCOCC5)c([N+](=O)[O-])c4)c(Oc4cnc5[nH]ccc5c4)c3)CC2)=C(c2ccc(Cl)cc2)C1 [Venetoclax] + C1CN(CCC1(C(=O)N[C@@H](CCO)C2=CC=C(C=C2)Cl)N)C3=NC=NC4=C3C=CN4 [Capivasertib] (first compound max 1 µM, 7x7, partner max 3 µM) | -0.0469 | -0.0881 | -0.0189 | 0.232 | 0.285 | 0.149 | 0.0815 | 0.172 | 0.295 | 0.581 | 0.512 | 0.663 | 0.0322 | 0.957 | 0.227 | 0.424 | 0.323 | 0.402 | 0.123 | 0.936
2 | CC1(C)CCC(CN2CCN(c3ccc(C(=O)NS(=O)(=O)c4ccc(NCC5CCOCC5)c([N+](=O)[O-])c4)c(Oc4cnc5[nH]ccc5c4)c3)CC2)=C(c2ccc(Cl)cc2)C1 [Venetoclax] + C=CCn1c(=O)c2cnc(Nc3ccc(N4CCN(C)CC4)cc3)nc2n1-c1cccc(C(C)(C)O)n1 [AZD1775] (first compound max 1 µM, partner max 1 µM) | -0.0729 | 0.035 | -0.0234 | 0.436 | 0.682 | 0.176 | 0.257 | 0.849 | 0.531 | 0.765 | 0.621 | 0.586 | 0.36 | 0.967 | 0.31 | 0.883 | 0.413 | 0.733 | 0.254 | 1
3 | CC1(C)CCC(CN2CCN(c3ccc(C(=O)NS(=O)(=O)c4ccc(NCC5CCOCC5)c([N+](=O)[O-])c4)c(Oc4cnc5[nH]ccc5c4)c3)CC2)=C(c2ccc(Cl)cc2)C1 [Venetoclax] + CCN(CCO)CCCOc1ccc2c(Nc3cc(CC(=O)Nc4cccc(F)c4)[nH]n3)ncnc2c1 [AZD2811] (first compound max 1 µM, 7x7, partner max 1 µM) | -0.011 | -0.028 | 0.0468 | 0.337 | 0.289 | 0.176 | 0.187 | 0.252 | 0.258 | 0.588 | 0.371 | 0.361 | 0.152 | 0.807 | 0.153 | 0.396 | 0.402 | 0.64 | 0.198 | 1
4 | CC1(C)CCC(CN2CCN(c3ccc(C(=O)NS(=O)(=O)c4ccc(NCC5CCOCC5)c([N+](=O)[O-])c4)c(Oc4cnc5[nH]ccc5c4)c3)CC2)=C(c2ccc(Cl)cc2)C1 [Venetoclax] + CN(C)CCCOc1ccc(-c2ccc3ncc4c(c3c2)n(C2CCOCC2)c(=O)n4C)cn1 [AZD0156] (first compound max 1 µM, 7x7, partner max 1 µM) | -0.0862 | -0.0876 | 0.0126 | 0.211 | 0.345 | 0.107 | 0.173 | 0.465 | 0.244 | 0.688 | 0.423 | 0.229 | 0.157 | 0.137 | 0.167 | 0.519 | 0.226 | 0.424 | 0.0799 | 0.908
5 | CC1(C)CCC(CN2CCN(c3ccc(C(=O)NS(=O)(=O)c4ccc(NCC5CCOCC5)c([N+](=O)[O-])c4)c(Oc4cnc5[nH]ccc5c4)c3)CC2)=C(c2ccc(Cl)cc2)C1 [Venetoclax] + COc1cc(Nc2ncc3c(n2)-c2ccc(Cl)cc2C(c2c(F)cccc2OC)=NC3)ccc1C(=O)O [Alisertib] (first compound max 1 µM, 7x7, partner max 10 µM) | -0.0516 | -0.0236 | 0.0396 | 0.362 | 0.522 | 0.203 | 0.318 | 0.51 | 0.383 | 0.563 | 0.734 | 0.42 | 0 | 0.827 | 0.384 | 0.673 | 0.612 | 0.719 | 0.489 | 0.99
6 | CC1(C)CCC(CN2CCN(c3ccc(C(=O)NS(=O)(=O)c4ccc(NCC5CCOCC5)c([N+](=O)[O-])c4)c(Oc4cnc5[nH]ccc5c4)c3)CC2)=C(c2ccc(Cl)cc2)C1 [Venetoclax] + C[C@@H]1COCCN1C2=NC(=NC(=C2)C3(CC3)[S@](=N)(=O)C)C4=C5C=CNC5=NC=C4 [AZD6738] (first compound max 1 µM, 7x7, partner max 10 µM) | -0.058 | -0.0556 | -0.0339 | 0.623 | 0.537 | 0.226 | 0.278 | 0.83 | 0.814 | 0.678 | 0.423 | 0.675 | 0.433 | 0.912 | 0.384 | 0.793 | 0.788 | 0.697 | 0.396 | 0.996
7 | CC1(C)CCC(CN2CCN(c3ccc(C(=O)NS(=O)(=O)c4ccc(NCC5CCOCC5)c([N+](=O)[O-])c4)c(Oc4cnc5[nH]ccc5c4)c3)CC2)=C(c2ccc(Cl)cc2)C1 [Venetoclax] + C[C@@H](Nc1cc(F)cc(F)c1)c1cc(C(=O)N(C)C)cc2c(=O)cc(N3CCOCC3)oc12 [AZD8186] (first compound max 1 µM, 7x7, partner max 3 µM) | -0.0289 | -0.0415 | -0.0062 | 0.306 | 0.575 | 0.18 | 0.111 | 0.119 | 0.36 | 0.602 | 0.371 | 0.121 | 0.0687 | 0.735 | 0.12 | 0.401 | 0.158 | 0.322 | 0.176 | 0.96
8 | CC1(C)CCC(CN2CCN(c3ccc(C(=O)NS(=O)(=O)c4ccc(NCC5CCOCC5)c([N+](=O)[O-])c4)c(Oc4cnc5[nH]ccc5c4)c3)CC2)=C(c2ccc(Cl)cc2)C1 [Venetoclax] + Cc1cc2ncnn2cc1Nc1ncc2c(n1)n(C1CCOCC1)c(=O)n2C [AZD7648] (first compound max 1 µM, 7x7, partner max 10 µM) | -0.062 | -0.043 | 0.0069 | 0.269 | 0.374 | 0.157 | 0.161 | 0.366 | 0.309 | 0.588 | 0.319 | 0.229 | 0.152 | 0.249 | 0.125 | 0.401 | 0.203 | 0.34 | 0.195 | 0.875
9 | CC1(C)CCC(CN2CCN(c3ccc(C(=O)NS(=O)(=O)c4ccc(NCC5CCOCC5)c([N+](=O)[O-])c4)c(Oc4cnc5[nH]ccc5c4)c3)CC2)=C(c2ccc(Cl)cc2)C1 [Venetoclax] + Cn1cnc2c(F)c(Nc3ccc(Br)cc3Cl)c(C(=O)NOCCO)cc21 [Selumetinib] (first compound max 1 µM, 7x7, partner max 3 µM) | -0.0034 | 0.0047 | 0.0003 | 0.633 | 0.479 | 0.291 | 0.159 | 0.256 | 0.42 | 0.65 | 0.18 | 0.312 | 0.0843 | 0.072 | 0.106 | 0.457 | 0.493 | 0.455 | 0.161 | 0.897
